Experiments:
[1] = test system: Puccinia recondita f. Sp. Tritici; assay: Puccinia recondita f. sp. tritici / wheat / leaf disc curative (brown rust); assay type: in vivo; conditions: foliar, 144 h, 200 ppm in the applied formulation, wheat leaf segments cv. Kanzler, applied 1 day after inoculation, assessed 6 to 8 days after application, vs untreated, read-out: disease control
Method in brief: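 Wheat cv. Kanzler leaf segments on agar were inoculated with fungal spore suspension, held dark at 19° C and 75% RH, then sprayed 1 day later with formulated compound diluted in water. Incubation continued at 19° C, 75% RH, 12 h light/12 h dark; percent disease control versus untreated was scored 6 to 8 days after application.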

[2] = test system: Puccinia recondita f. Sp. Tritici; assay: Puccinia recondita f. sp. tritici / wheat / leaf disc preventative (brown rust); assay type: in vivo; conditions: foliar, 168 h, 200 ppm in the applied formulation, wheat leaf segments cv. Kanzler, preventative, inoculated 1 day after application, assessed 7 to 9 days after application, vs untreated, read-out: disease control
Method in brief: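 Wheat cv. Kanzler leaf segments on agar were sprayed with formulated compound in water, then inoculated with spores 1 day later. Incubated at 19° C, 75% rh, 12 h light/12 h dark; percent disease control versus untreated scored 7 to 9 days after application.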

Phakopsora pachyrhizi = Phakopsora pachyrhizi / soybean / leaf disc preventative (Asian soybean rust); assay type: in vivo; conditions: foliar, 288 h, 200 ppm in the applied formulation, soybean leaf disks, inoculated one day after application, assessed 12 to 14 days after application, vs untreated, read-out: disease control
Protocol: Leaf disks or leaf segments of various plant species are cut from plants grown in a greenhouse. The cut leaf disks or segments are placed in multiwell plates (24-well format) onto water agar. The leaf disks are sprayed with a test solution before (preventative) or after (curative) inoculation. Compounds to be tested are prepared as DMSO solutions (max. 10 mg/ml) which are diluted to the appropriate concentration with 0.025% Tween20 just before spraying. The inoculated leaf disks or segments are incubated under defined conditions (temperature, relative humidity, light, etc.) according to the respective test system. A single evaluation of disease level is carried out 3 to 14 days after inoculation, depending on the pathosystem. Percent disease control relative to the untreated check leaf disks or segments is then calculated.
Soybean leaf disks are placed on water agar in multiwell plates (24-well format) and sprayed with the formulated test compound diluted in water. One day after application leaf discs are inoculated by spraying a spore suspension on the lower leaf surface. After an incubation period in a climate cabinet of 24-36 hours in darkness at 20° C. and 75% rh leaf disc are kept at 20° C. with 12 h light/day and 75% rh. The activity of a compound is assessed as percent disease control compared to untreated when an appropriate level of disease damage appears in untreated check leaf disks (12 to 14 days after application).
The following compounds at 200 ppm in the applied formulation give at least 80% disease control in this test when compared to untreated control leaf disks under the same conditions, which show extensive disease development.

[3] = test system: Glomerella Lagenarium (Colletotrichum Lagenarium); assay: Glomerella lagenarium (Colletotrichum lagenarium) liquid culture / cucumber / preventative (anthracnose); assay type: cell-based; conditions: Colletotrichum orbiculare; 20 ppm in the applied formulation; liquid culture in PDB, 24° C., inhibition of growth measured photometrically 3 to 4 days after application, vs untreated; read-out: disease control
Method in brief: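 Conidia from cryogenic storage were mixed into potato dextrose broth. This was added to compound diluted from DMSO into 0.025% Tween20, tested at 20 ppm. Plates were incubated in the dark at 24 °C and 96% relative humidity, and growth was read photometrically after 2–7 days as % activity versus untreated check.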

O=C(O)c1cnn(Cc2ccc(-c3noc(C(F)(F)F)n3)cc2)c1 [Compound 1.147, 1-[[4-[5-(trifluoromethyl)-1,2,4-oxadiazol-3-yl]phenyl]methyl]pyrazole-4-carboxylic acid]
≥ 80%: pest or weed control at 200 ppm [1] | pest or weed control at 200 ppm [2] | pest or weed control at 200 ppm (Phakopsora pachyrhizi) | inhibition of growth at 20 ppm [3]

Cc1cc(C)n(Cc2ccc(-c3noc(C(F)(F)F)n3)c(F)c2)n1 [Compound 1.253, 3-[4-[(3,5-dimethylpyrazol-1-yl)methyl]-2-fluoro-phenyl]-5-(trifluoromethyl)-1,2,4-oxadiazole]
≥ 80%: pest or weed control at 200 ppm [1] | pest or weed control at 200 ppm [2] | pest or weed control at 200 ppm (Phakopsora pachyrhizi) | inhibition of growth at 20 ppm [3]

N#CC(c1ccc(-c2noc(C(F)(F)F)n2)cc1)N1CCOCC1 (stereo not drawn) [Compound 1.312, 2-morpholino-2-[4-[5-(trifluoromethyl)-1,2,4-oxadiazol-3-yl]phenyl]acetonitrile]
≥ 80%: pest or weed control at 200 ppm [1] | pest or weed control at 200 ppm [2] | pest or weed control at 200 ppm (Phakopsora pachyrhizi) | inhibition of growth at 20 ppm [3]

COCc1c(C(=O)OC)cnn1Cc1ccc(-c2noc(C(F)(F)F)n2)cc1 [Compound 1.239, methyl 5-(methoxymethyl)-1-[[4-[5-(trifluoromethyl)-1,2,4-oxadiazol-3-yl]phenyl]methyl]pyrazole-4-carboxylate]
≥ 80%: pest or weed control at 200 ppm [1] | pest or weed control at 200 ppm [2] | pest or weed control at 200 ppm (Phakopsora pachyrhizi) | inhibition of growth at 20 ppm [3]

COC(=O)c1cccc2nn(Cc3ccc(-c4noc(C(F)(F)F)n4)cc3)cc12 [Compound 1.192, methyl 2-[[4-[5-(trifluoromethyl)-1,2,4-oxadiazol-3-yl]phenyl]methyl]indazole-4-carboxylate]
≥ 80%: pest or weed control at 200 ppm [1] | pest or weed control at 200 ppm [2] | pest or weed control at 200 ppm (Phakopsora pachyrhizi) | inhibition of growth at 20 ppm [3]

Fc1cc(-c2noc(C(F)(F)F)n2)ccc1Cn1ccnc1 [Compound 1.129, 3-[3-fluoro-4-(imidazol-1-ylmethyl)phenyl]-5-(trifluoromethyl)-1,2,4-oxadiazole]
≥ 80%: pest or weed control at 200 ppm [1] | pest or weed control at 200 ppm [2] | pest or weed control at 200 ppm (Phakopsora pachyrhizi) | inhibition of growth at 20 ppm [3]

FC(F)(F)c1nc(-c2ccc(Cn3ncc4ccccc43)cc2)no1 [Compound 1.87, 3-[4-(indazol-1-ylmethyl)phenyl]-5-(trifluoromethyl)-1,2,4-oxadiazole]
≥ 80%: pest or weed control at 200 ppm [1] | pest or weed control at 200 ppm [2] | pest or weed control at 200 ppm (Phakopsora pachyrhizi) | inhibition of growth at 20 ppm [3]

Cc1nc(Br)cn1Cc1ccc(-c2noc(C(F)(F)F)n2)cc1 [Compound 1.91, 3-[4-[(4-bromo-2-methyl-imidazol-1-yl)methyl]phenyl]-5-(trifluoromethyl)-1,2,4-oxadiazole]
≥ 80%: pest or weed control at 200 ppm [1] | pest or weed control at 200 ppm [2] | pest or weed control at 200 ppm (Phakopsora pachyrhizi) | inhibition of growth at 20 ppm [3]

COC(=O)c1cn(Cc2ccc(-c3noc(C(F)(F)F)n3)cc2)nc1C1CC1 [Compound 1.237, methyl 3-cyclopropyl-1-[[4-[5-(trifluoromethyl)-1,2,4-oxadiazol-3-yl]phenyl]methyl]pyrazole-4-carboxylate]
≥ 80%: pest or weed control at 200 ppm [1] | pest or weed control at 200 ppm [2] | pest or weed control at 200 ppm (Phakopsora pachyrhizi) | inhibition of growth at 20 ppm [3]

Cc1cc(C#N)nn1Cc1ccc(-c2noc(C(F)(F)F)n2)cc1 [Compound 1.93, 5-methyl-1-[[4-[5-(trifluoromethyl)-1,2,4-oxadiazol-3-yl]phenyl]methyl]pyrazole-3-carbonitrile]
≥ 80%: pest or weed control at 200 ppm [1] | pest or weed control at 200 ppm [2] | pest or weed control at 200 ppm (Phakopsora pachyrhizi) | inhibition of growth at 20 ppm [3]

FC(F)(F)c1nc(-c2ccc(Cn3cnc(-c4ccc(Cl)cc4)c3)cc2)no1 [Compound 1.229, 3-[4-[[4-(4-chlorophenyl)imidazol-1-yl]methyl]phenyl]-5-(trifluoromethyl)-1,2,4-oxadiazole]
≥ 80%: pest or weed control at 200 ppm [1] | pest or weed control at 200 ppm [2] | pest or weed control at 200 ppm (Phakopsora pachyrhizi) | inhibition of growth at 20 ppm [3]

O=Cc1ccn(Cc2ccc(-c3noc(C(F)(F)F)n3)cc2)n1 [Compound 1.85, 1-[[4-[5-(trifluoromethyl)-1,2,4-oxadiazol-3-yl]phenyl]methyl]pyrazole-3-carbaldehyde]
≥ 80%: pest or weed control at 200 ppm [1] | pest or weed control at 200 ppm [2] | pest or weed control at 200 ppm (Phakopsora pachyrhizi) | inhibition of growth at 20 ppm [3]

COc1nc(N)nn1Cc1ccc(-c2noc(C(F)(F)F)n2)cc1 [Compound 1.215, 5-methoxy-1-[[4-[5-(trifluoromethyl)-1,2,4-oxadiazol-3-yl]phenyl]methyl]-1,2,4-triazol-3-amine]
≥ 80%: pest or weed control at 200 ppm [1] | pest or weed control at 200 ppm [2] | pest or weed control at 200 ppm (Phakopsora pachyrhizi) | inhibition of growth at 20 ppm [3]

CCOC(=O)c1cccnc1-c1ccn(Cc2ccc(-c3noc(C(F)(F)F)n3)cc2)n1 [Compound 1.219, ethyl 2-[1-[[4-[5-(trifluoromethyl)-1,2,4-oxadiazol-3-yl]phenyl]methyl]pyrazol-3-yl]pyridine-3-carboxylate]
≥ 80%: pest or weed control at 200 ppm [1] | pest or weed control at 200 ppm [2] | pest or weed control at 200 ppm (Phakopsora pachyrhizi) | inhibition of growth at 20 ppm [3]

CCCSc1ncn(Cc2ccc(-c3noc(C(F)(F)F)n3)cc2)n1 [Compound 1.206, 3-[4-[(3-propylsulfanyl-1,2,4-triazol-1-yl)methyl]phenyl]-5-(trifluoromethyl)-1,2,4-oxadiazole]
≥ 80%: pest or weed control at 200 ppm [1] | pest or weed control at 200 ppm [2] | pest or weed control at 200 ppm (Phakopsora pachyrhizi) | inhibition of growth at 20 ppm [3]

COc1nc(Br)n(Cc2ccc(-c3noc(C(F)(F)F)n3)cc2)n1 [Compound 1.232, 3-[4-[(5-bromo-3-methoxy-1,2,4-triazol-1-yl)methyl]phenyl]-5-(trifluoromethyl)-1,2,4-oxadiazole]
≥ 80%: pest or weed control at 200 ppm [1] | pest or weed control at 200 ppm [2] | pest or weed control at 200 ppm (Phakopsora pachyrhizi) | inhibition of growth at 20 ppm [3]

COc1nc(Br)nn1Cc1ccc(-c2noc(C(F)(F)F)n2)cc1 [Compound 1.233, 3-[4-[(3-bromo-5-methoxy-1,2,4-triazol-1-yl)methyl]phenyl]-5-(trifluoromethyl)-1,2,4-oxadiazole]
≥ 80%: pest or weed control at 200 ppm [1] | pest or weed control at 200 ppm [2] | pest or weed control at 200 ppm (Phakopsora pachyrhizi) | inhibition of growth at 20 ppm [3]

COC(=O)c1ncnn1Cc1ccc(-c2noc(C(F)(F)F)n2)cc1 [Compound 1.36, methyl 2-[[4-[5-(trifluoromethyl)-1,2,4-oxadiazol-3-yl]phenyl]methyl]-1,2,4-triazole-3-carboxylate]
≥ 80%: pest or weed control at 200 ppm [1] | pest or weed control at 200 ppm [2] | pest or weed control at 200 ppm (Phakopsora pachyrhizi) | inhibition of growth at 20 ppm [3]

CC(=O)NCCc1cn(Cc2ccc(-c3noc(C(F)(F)F)n3)cc2)cn1 [Compound 1.156, N-[2-[1-[[4-[5-(trifluoromethyl)-1,2,4-oxadiazol-3-yl]phenyl]methyl]imidazol-4-yl]ethyl]acetamide]
≥ 80%: pest or weed control at 200 ppm [1] | pest or weed control at 200 ppm [2] | pest or weed control at 200 ppm (Phakopsora pachyrhizi)

From patent US10798941B2, “Microbiocidal oxadiazole derivatives” (SYNGENTA PARTICIPATIONS AG, priority 2016, dated 2020)
